For series [1], the system named is cecal ligation and puncture (CLP) model of sepsis. The series is described as follows: Cecal ligation and puncture (CLP) model of sepsis. The format is in vivo, mice. The protocol: In anesthetized male Balb/C mice (ketamine 100 mg/kg and xylazine 8 mg/kg administered intramuscularly), abdominal access was gained via a midline incision. The cecum was isolated and ligated with a 6-0 silk ligature below the ileocecal valve, and the cecum punctured once with a 22 G needle, stool (approximately 1 mm^3) extruded from the hole, and the cecum placed back into the abdominal cavity. The abdomen was closed with two layers of 6-0 Ethilon sutures. Antibiotics were administered immediately after CLP (Premaxin 0.5 mg/kg, subcutaneously, in a total volume of 0.5 ml/mouse) and a single dose of resuscitative fluid (normal saline solution) was administered subcutaneously (20 ml/kg-body weight) immediately after CLP. […] Additionally, two injections were given on day 2 and day 3.
The cecal ligation and puncture experiment was repeated in a second group of animals. The experimental procedure was identical to that used in the preceding example.

Series [2] deals with leukocyte recruitment into air pouch. The series is described as follows: Air pouch model of acute inflammation (carrageenan). It counts as in vivo, mice. As to conditions: 4 mg/kg i.p. 15 min before 1% carrageenan, exudate after five hours. The protocol: Air pouches were produced according to standard procedures (Garcia-Ramallo et al., 2002) using C57bk6 mice (wild-type) or strain-matched mice lacking both copies of the MIF gene (MIF−/−) by injecting sterile air s.c. on day 0 (6 ml) and day 3 (3 ml). […] 15 min. later the animals were challenged by injecting 1 ml 1% carrageenan (in PBS) into the air pouch cavity. Five hours after carrageenan injection the animals were sacrificed, the pouches washed with PBS, exudates collected, and the total number of infiltrating cells quantitated.

For series [3], the system named is LPS-stimulated RAW 267.4 cells. The series is described as follows: TNF secretion from LPS-stimulated RAW macrophages (ELISA). The format is cell-based. To be noted: 0.1 μg/ml LPS. The protocol: After 16 h, cell culture supernatants were collected for determination of TNF concentration by enzyme-linked immunosorbent assay (R & D Systems).
(In general: In an ELISA, binding on a coated surface is turned into a signal by an enzyme label.)

The conditions of series [4]: cited from earlier work.

A word on the IC50: it is the concentration that gives 50% inhibition.

Consider `N[C@H](Cc1cc(I)c(Oc2cc(I)c(O)c(I)c2)c(I)c1)C(=O)O` [D-T4, dextrothyroxine], for which, in series [1] (male Balb/C mice, 4 mg/kg i.p. 24 hours after CLP, further injections on day 2 and day 3, n=10, vehicle 2/10), the survival is 6/10. The “survival, repeat experiment in a second group of animals” value in series [1] (procedure identical to the first CLP experiment, FIG. 4) was “dramatically increases survival”. Besides, the “leukocyte recruitment (number of infiltrating cells), wild-type mice” value in series [2] (C57bk6 wild-type, p<0.04 relative to vehicle) is recorded as “inhibits leukocyte recruitment”. Besides, the “leukocyte recruitment (number of infiltrating cells), MIF knockout mice” value in series [2] (MIF−/− mice, n.s.) is on record as “not in MIF knockout animals”. Further, the IC50 in series [3] (RAW267.4, 30 minutes preincubation, supernatants after 16 h, read-out: IC50, inhibition of the release of TNFα) turned out to be 1 µM.
As for `N[C@@H](Cc1cc(I)c(Oc2cc(I)c(O)c(I)c2)c(I)c1)C(=O)O` [L-T4, L-thyroxine], in series [3] (0.01-50 μM, 16 h), the “inhibitory effect on TNF release compared with ISO-1” value is reported as “more potent than ISO-1”. In series [4], the “free (unbound) hormone as percentage of the total hormone in plasma” value is listed as “about 0.03%”.

The record behind these values is patent publication US20110136911A1 (The Feinstein Institute for Medical Research, priority 2007, published 2011).
